Converted amounts (≈) assume the structure as drawn. Where two headings read alike, the source gives them in different places.
What was measured:
Assay type in all cases: cell-based
[1] = test system: HCT-116 colorectal cancer cell line; experiment: CCK-8 proliferation inhibition; conditions: Homo sapiens, HCT-116, 72 h, read-out: HCT116 inhibition rate/%
Experimental: (1) HCT-116 colorectal cancer cell line, A549 lung cancer cell line, MGC-803 gastric cancer cell line, BEL-7402 liver cancer cell line, Jurkat T cell leukemia cell line, HL60 acute myeloid leukemia cell line, Hela cervical cancer cell line, MCF-7 breast cancer cell line, PC3 prostate cancer cell line and SAOS-2 osteosarcoma cell line were made into single cell suspension, 180 μL of which was inoculated into 96-well culture plate, which was cultured overnight in CO2 incubator (37° C., 5% CO2, 95% air).
(2) Each of the spiro three-membered ring, spiro five membered ring peptide deformylase inhibitors was dissolved in DMSO, and was further formulated into drug solution with required different final concentration using corresponding cell culture medium. The drug solutions were added to the above cells respectively (20 μL/well), with the control group added with 1‰ DMSO, and cultured in a CO2 incubator for 72 hours.
(3) After incubation for 72 hours, the culture solution was decanted, and 100 μL of 1:10 diluted CCK-8 solution was added.
Wherein, in step (1), the concentration of the single cell suspension was 2000 cells/well.
Wherein, in step (2), HCT-116 cells were cultured in McCoy's 5A medium (containing 10% newborn bovine serum, 1% double antibody); A549 and PC3 cells were cultured in F12 medium (containing 10% newborn bovine serum, 1% double antibody); MGC-803, BEL-7402, SAOS-2, Jurkat and HL60 cells were cultured in 1640 medium (containing 10% newborn bovine serum, 1% double antibody); and MCF-7 and Hela cells were cultured in DMEM high glucose medium (containing 10% newborn bovine serum, 1% double antibody).

[2] = test system: Escherichia coli (including ESBLs, non-ESBLs); experiment: MIC, two-fold agar dilution (CLSI), clinical isolates
Excerpt: (§1) 1. The invention adopts the two-fold agar dilution method recommended by the operating procedure of antimicrobial susceptibility testing set by American Clinical and Laboratory Standards Institute (CLSI) to determine the Minimum Inhibitory Concentration (MIC) of the test samples against the tested strains.

[3] = test system: methicillin-resistant Staphylococcus epidermidis (MRSE); experiment: as above
Excerpt: as §1

[4] = test system: methicillin-sensitive Staphylococcus epidermidis (MSSE); experiment: as above
Excerpt: as §1

[5] = test system: methicillin-sensitive Staphylococcus aureus (MSSA); experiment: as above
Excerpt: as §1

[6] = test system: methicillin-resistant Staphylococcus aureus (MRSA); experiment: as above
Excerpt: as §1

[7] = test system: Enterococcus faecalis (EFA); experiment: as above
Excerpt: as §1

[8] = strain printed MRSA 14-1 (second line of that name, r23, before MRSE 14-2)

SMILES | MIC (anti-bacterial activity) ([2]; strain ECO+ 14-1) [µg/mL] | MIC (anti-bacterial activity) ([2]; strain ECO+ 14-2) [µg/mL] | MIC (anti-bacterial activity) ([2]; strain ECO− 14-1) [µg/mL] | MIC (anti-bacterial activity) ([2]; strain ECO− 14-2) [µg/mL] | MIC (anti-bacterial activity) ([3]; strain MRSE 14-2) [µg/mL] | MIC (anti-bacterial activity) ([3]; strain MRSE 14-3) [µg/mL] | MIC (anti-bacterial activity) ([3]; strain MRSE 14-4) [µg/mL] | MIC (anti-bacterial activity) ([4]; strain MSSE 14-1) [µg/mL] | MIC (anti-bacterial activity) ([4]; strain MSSE 14-2) [µg/mL] | MIC (anti-bacterial activity) ([4]; strain MSSE 14-3) [µg/mL] | MIC (anti-bacterial activity) ([4]; strain MSSE 14-4) [µg/mL] | MIC (anti-bacterial activity) ([5]; strain MSSA 14-1) [µg/mL] | MIC (anti-bacterial activity) ([5]; strain MSSA 14-2) [µg/mL] | MIC (anti-bacterial activity) ([5]; strain MSSA 14-3) [µg/mL] | MIC (anti-bacterial activity) ([5]; strain MSSA 14-4) [µg/mL] | MIC (anti-bacterial activity) ([6]; strain MRSA 14-1) [µg/mL] | MIC (anti-bacterial activity) ([6]; strain MRSA 14-2) [µg/mL] | MIC (anti-bacterial activity) ([6]; strain MRSA 14-4) [µg/mL] | MIC (anti-bacterial activity) ([6]; strain MRSA 14-5) [µg/mL] | MIC (anti-bacterial activity) [6, 8] [µg/mL] | further results
CCCC[C@H](CN(O)C=O)C(=O)N1CC2(CC2)C[C@H]1C(=O)Nc1cc[nH]n1 [Example 1] | 16 (≈ 42.4 µM) | 128 (≈ 339 µM) | > 128 | > 128 | 8 (≈ 21.2 µM) | 4 (≈ 10.6 µM) | 8 (≈ 21.2 µM) | 4 (≈ 10.6 µM) | 16 (≈ 42.4 µM) | 4 (≈ 10.6 µM) | 4 (≈ 10.6 µM) | 16 (≈ 42.4 µM) | 16 (≈ 42.4 µM) | 16 (≈ 42.4 µM) | 16 (≈ 42.4 µM) | 16 (≈ 42.4 µM) | 32 (≈ 84.8 µM) | 16 (≈ 42.4 µM) | 8 (≈ 21.2 µM) | 8 (≈ 21.2 µM) | inhibition at 30 µM [1]: 7%; MIC (anti-bacterial activity) ([7]; strain EFA 14-1): 64 µg/mL (≈ 170 µM); MIC (anti-bacterial activity) ([7]; strain EFA 14-2): 64 µg/mL (≈ 170 µM); MIC (anti-bacterial activity) ([7]; strain EFA 14-3): 64 µg/mL (≈ 170 µM); MIC (anti-bacterial activity) ([7]; strain EFA 14-5): > 128 µg/mL
CCCC[C@H](CN(O)C=O)C(=O)N1CC2(CC2)C[C@H]1C(=O)Nc1ncccc1F [Example 5] | 2 (≈ 4.92 µM) | 64 (≈ 157 µM) | > 64 | 64 (≈ 157 µM) | 0.25 (≈ 0.615 µM) | 0.125 (≈ 0.308 µM) | 0.5 (≈ 1.23 µM) | 0.125 (≈ 0.308 µM) | 0.25 (≈ 0.615 µM) | 0.25 (≈ 0.615 µM) | 0.25 (≈ 0.615 µM) | 0.5 (≈ 1.23 µM) | 0.5 (≈ 1.23 µM) | 0.5 (≈ 1.23 µM) | 0.5 (≈ 1.23 µM) | 0.5 (≈ 1.23 µM) | 0.5 (≈ 1.23 µM) | 0.5 (≈ 1.23 µM) | 0.25 (≈ 0.615 µM) | 0.25 (≈ 0.615 µM) | inhibition at 30 µM ([1]; concentration of 30 μM, 72 hours, CCK-8): -15%; MIC (anti-bacterial activity) ([7]; strain EFA 14-1): 2 µg/mL (≈ 4.92 µM); MIC (anti-bacterial activity) ([7]; strain EFA 14-2): 2 µg/mL (≈ 4.92 µM); MIC (anti-bacterial activity) ([7]; strain EFA 14-3): 2 µg/mL (≈ 4.92 µM); MIC (anti-bacterial activity) ([7]; strain EFA 14-5): 2 µg/mL (≈ 4.92 µM)
